Calls of active or inactive are those of the source. No rule for the calls is given here.
target: Sphingosine 1-phosphate receptor 3 (Homo sapiens) (UniProt Q99500); experiment: blockade of S1P-driven S1P3 signaling – cell-based, dose response (AID 484); conditions: S1P3-expressing cells, antagonist inhibition of S1P response
Sequence (Q99500 whole entry, looked up): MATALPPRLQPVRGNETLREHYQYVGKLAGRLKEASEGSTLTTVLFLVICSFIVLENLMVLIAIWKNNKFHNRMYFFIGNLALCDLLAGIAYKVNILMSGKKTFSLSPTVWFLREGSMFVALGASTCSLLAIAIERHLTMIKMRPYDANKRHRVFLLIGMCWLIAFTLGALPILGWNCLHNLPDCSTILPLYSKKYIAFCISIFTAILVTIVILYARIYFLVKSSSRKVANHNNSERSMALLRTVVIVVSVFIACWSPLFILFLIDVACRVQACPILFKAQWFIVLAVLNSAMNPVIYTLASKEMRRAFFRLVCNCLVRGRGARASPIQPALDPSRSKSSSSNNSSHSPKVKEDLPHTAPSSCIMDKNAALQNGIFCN

**Q.** Which IC50 does the source give for `CC1(C)CC(=O)CC(=Nc2ccc(C(=O)O)cc2)C1` here?
**A.** > 49.8 µM (inactive)

**Q.** `COC(=O)C1=C(N)Oc2cc(C)n(C)c(=O)c2C1c1ccc(Cl)cc1` (stereo unspecified) was tested. Which IC50 did it give?
**A.** > 49.8 µM (inactive)

**Q.** `CC(=O)C1=C(C)Nc2ncnn2C1c1ccc(Cl)cc1` (stereo unspecified) was tested. Which IC50 did it give?
**A.** > 49.8 µM (inactive)

**Q.** For `COc1ccc(OC)c(C2C(C(C)=O)=C(O)C(=O)N2CCC(=O)O)c1` (stereo unspecified), which IC50 is on record?
**A.** > 49.8 µM (inactive)

**Q.** For `Cc1ccc(S(=O)(=O)N2CC(=NO)C2)cc1`, which IC50 is on record?
**A.** > 49.8 µM (inactive)

**Q.** Which IC50 does the source give for `O/C(=C\Sc1nnc(Cc2ccccc2)o1)c1ccc(Br)cc1` here?
**A.** > 49.8 µM (inactive)

**Q.** How did the IC50 turn out when `COc1cccc(N2C(=O)C(CC(=O)Nc3ccc(F)cc3)N(C3CCCCC3)C2=O)c1` (stereo unspecified) was run?
**A.** > 49.8 µM (inactive)

**Q.** `N#CC1=C(N)Oc2cc3c(cc2C1c1ccc(Cl)cc1)OCO3` (stereo unspecified) was tested. Which IC50 did it give?
**A.** inactive

**Q.** With `CN1CCN(C(=O)OC2c3nccnc3C(=O)N2c2ccc(Cl)cn2)CC1` (stereo unspecified) as the compound, how does the IC50 read?
**A.** > 49.8 µM (inactive)

**Q.** How did the IC50 turn out when `COc1ccc(CC2C(=O)NC(=O)N(c3ccccc3)C2=O)c(OC)c1` (stereo unspecified) was run?
**A.** > 49.8 µM (inactive)

**Q.** For `COC(=O)C1=C(N)Oc2cc(N(C)C)ccc2C1c1ccccc1OC` (stereo unspecified), which IC50 is on record?
**A.** > 16.6 µM (inactive)

Source: PubChem BioAssay AID484 (The Scripps Research Institute Molecular Screening Center, 2006)
